# According to PubChem BioAssay (NCI):
#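 Cultured in 96-well plates, cells were exposed to test compound for 48 hours across five concentrations. GI50 is the concentration that inhibits growth by half. At the TGI there is no net growth.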
# What was measured:
# Test in all cases: NCI tumour cell line growth inhibition, 48 h
# DU-145 prostate = tested on: DU-145 prostate
# SK-MEL-5 melanoma = tested on: SK-MEL-5 melanoma
# SF-539 CNS = tested on: SF-539 CNS
# SK-OV-3 ovarian = tested on: SK-OV-3 ovarian
# A549 NSCLC = tested on: A549 NSCLC
# M14 melanoma = tested on: M14 melanoma
# HL-60(TB) leukemia = tested on: HL-60(TB) leukemia
# A498 renal = tested on: A498 renal
# HOP-92 NSCLC = tested on: HOP-92 NSCLC
# U251 CNS = tested on: U251 CNS
SMILES,GI50 (DU-145 prostate),TGI (DU-145 prostate),GI50 (SK-MEL-5 melanoma),TGI (SK-MEL-5 melanoma),GI50 (SF-539 CNS),TGI (SF-539 CNS),GI50 (SK-OV-3 ovarian),TGI (SK-OV-3 ovarian),GI50 (A549 NSCLC),TGI (A549 NSCLC),GI50 (M14 melanoma),TGI (M14 melanoma),GI50 (HL-60(TB) leukemia),TGI (HL-60(TB) leukemia),GI50 (A498 renal),TGI (A498 renal),GI50 (HOP-92 NSCLC),TGI (HOP-92 NSCLC),GI50 (U251 CNS),TGI (U251 CNS)
Cc1cc(OCc2nn(CN3CCN(C)CC3)c(=S)n2/N=C/c2ccc(F)cc2)ccc1Cl,20.7 µM,40.7 µM,16.7 µM,30.6 µM,19.3 µM,40.1 µM,19.7 µM,44.4 µM,16.9 µM,31.3 µM,17.9 µM,33.1 µM,17.4 µM,40 µM,16.8 µM,31.3 µM,17.8 µM,37.6 µM,–,–
O=C(Nc1ccc(Cl)cc1)N1CCN(c2ccc3nncn3n2)CC1,49.8 µM,> 100 µM,37.3 µM,> 100 µM,> 100 µM,> 100 µM,> 100 µM,> 100 µM,–,–,56.2 µM,> 100 µM,29.8 µM,> 100 µM,11.2 µM,96.6 µM,31.7 µM,> 100 µM,> 100 µM,> 100 µM
CN(C)CCNC(=O)c1cccc2c1nc(-c1ccncc1)c1ccccc12,–,–,–,6.8 µM,–,10.7 µM,–,24.7 µM,–,12.6 µM,–,16.8 µM,–,> 100 µM,–,7.67 µM,–,9.77 µM,–,17 µM
C=C1C(=O)O[C@H]2[C@H]1CC/C(COC(=O)N[C@H](Cc1c[nH]c3ccccc13)C(=O)OC)=C\CC[C@@]1(C)O[C@@H]21,1.61 µM,4.37 µM,7.03 µM,20.5 µM,2.01 µM,5.37 µM,13.4 µM,26.4 µM,14.9 µM,32.7 µM,2.06 µM,6.08 µM,–,–,10.9 µM,22.9 µM,1.94 µM,5.87 µM,10 µM,22.1 µM
O=C1CCc2ccc(O)c(c2)Oc2ccc(cc2)[C@@H]2O[C@@H]2CO1,–,–,–,58.2 µM,–,> 100 µM,–,> 100 µM,–,> 100 µM,–,> 100 µM,–,> 100 µM,–,70.7 µM,–,88.2 µM,–,> 100 µM
CC(=O)[CH-]C(=O)c1ccccc1.CC(=O)[CH-]C(=O)c1ccccc1.CC(=O)[CH-]C(=O)c1ccccc1.[Br-].[Zr+4],–,–,> 100 µM,> 100 µM,–,–,74.8 µM,> 100 µM,> 100 µM,> 100 µM,45 µM,> 100 µM,52.7 µM,> 100 µM,24.9 µM,> 100 µM,18.6 µM,61.4 µM,67.7 µM,> 100 µM
CCOC(=O)c1cc(C(=O)c2cc(OC)c(OC)c(OC)c2)n2ccc(-c3cc[n+](CC(=O)c4cc(OC)c(OC)c(OC)c4)cc3)cc12,1.8 µM,3.39 µM,1.81 µM,3.54 µM,1.61 µM,3.3 µM,19.6 µM,47.1 µM,3.29 µM,6.29 µM,–,–,2.58 µM,5.75 µM,1.96 µM,3.85 µM,–,–,–,–
CCc1ccccc1NC(=O)C(=O)C(C#N)c1c(Cl)cccc1Cl (stereo unspecified),–,–,–,–,–,> 100 µM,–,> 100 µM,–,> 100 µM,–,> 100 µM,–,> 100 µM,–,–,–,> 100 µM,–,> 100 µM
CCCCNCCCCCNc1cc(OC)cc2cccnc12,23.1 µM,56.3 µM,12.6 µM,27.6 µM,18.3 µM,34 µM,18.4 µM,35.9 µM,20.7 µM,51.3 µM,14.9 µM,28.5 µM,–,–,16.2 µM,38 µM,2.77 µM,23 µM,42.6 µM,> 100 µM
CCOP(=O)(OCC)C(NC(c1ccccc1)c1ccccc1)c1ccc(C(C)C)cc1 (stereo unspecified),8.41 µM,25.5 µM,3.35 µM,7.86 µM,13.1 µM,30 µM,13.2 µM,34.7 µM,4.84 µM,23.2 µM,2.13 µM,4.99 µM,–,–,–,–,1.97 µM,11 µM,3.63 µM,13.9 µM
C/C=C1/C(=Cc2[nH]c(C=c3[nH]/c(=C/C4=NC(=O)C(CC)=C4C)c(C)c3CCC(=O)O)c(CCC(=O)O)c2C)NC(=O)C1C (stereo unspecified),–,–,–,–,–,23 µM,–,> 50 µM,–,27 µM,–,6.11 µM,–,> 50 µM,–,–,–,15.9 µM,–,> 50 µM
CCS(=O)(=O)N1CCN(c2ccc(Nc3ncc(C(N)=O)c(NC4CC4)n3)cc2)CC1,8.63 µM,> 100 µM,3.13 µM,26.6 µM,2.09 µM,10.7 µM,7.93 µM,26.3 µM,19 µM,> 100 µM,3.23 µM,69 µM,–,–,4.32 µM,8.97 µM,4.9 µM,> 100 µM,54.1 µM,> 100 µM
O=C(O)CCSC(=O)Nc1ccccc1,–,–,–,–,–,> 100 µM,–,–,–,> 100 µM,–,> 100 µM,–,> 100 µM,–,> 100 µM,–,–,–,> 100 µM
FC(F)(F)c1nc(Br)[nH]c1C(F)(F)F,–,–,–,> 100 µM,–,> 100 µM,–,> 100 µM,–,> 100 µM,–,> 100 µM,–,> 100 µM,–,–,–,71.7 µM,–,> 100 µM
Cc1ccc2c(c1)C(O)(c1ccccc1)CCS2 (stereo unspecified),–,> 100 µM,–,> 100 µM,–,55 µM,–,> 100 µM,–,> 100 µM,–,66.9 µM,–,89.6 µM,–,–,–,77.9 µM,–,45.8 µM
O=C(NCc1ccccc1)C1C(=O)C(=O)N(Cc2ccccc2)C1=O (stereo unspecified),–,–,–,> 100 µM,–,> 100 µM,–,> 100 µM,–,> 100 µM,–,> 100 µM,–,> 100 µM,–,> 100 µM,–,> 100 µM,–,> 100 µM
CCSCCCC(=O)O,–,> 100 µM,–,> 100 µM,–,–,–,> 100 µM,–,> 100 µM,–,> 100 µM,–,> 100 µM,–,> 100 µM,–,–,–,> 100 µM
N/C(=N/S(=O)(=O)c1cc(C(=O)Nc2ccc(F)cc2)c(Cl)cc1SCc1ccccc1)Nc1ccccc1O,1.83 µM,3.56 µM,1.85 µM,4.57 µM,1.94 µM,4.23 µM,2.06 µM,4.2 µM,2.36 µM,4.71 µM,3.87 µM,14.4 µM,–,–,16.3 µM,30.5 µM,1.9 µM,4.02 µM,1.78 µM,3.22 µM
